This note sets out measurements from patent EP4623911A1, “PI4KB INHIBITORS FOR THE TREATMENT OF FATTY LIVER DISEASE” (ETH Zurich, priority 2024, dated 2025).

In one assay the test system is ATGL. Put plainly: ATGL protein quantification via immunoblot in HEK293T cell type. The class given is cell-based, human. Particulars: Golgi Ptdlns4P depleted by UCB9608, then glucose deprivation. Here is the method:
HEK293T and HEK293-AAV cell types were cultured in DMEM (high glucose) with 10% FBS and 1% Pen/Strep. HEK293-AAV cell type was used for imaging whereas HEK293T cells were adopted for the rest of the work. To overexpress EGFP-P4M, EGFP-SACM1L, EGFP-SACM1LK2A, ATGL-FLAG, ATGL-HA, ATGLK0-HA and FBXW8-FLAG in the HEK cells, Lipofectamine 2000 was used to deliver these plasmids for 24 h expression at 60-80% cell confluence according to the manufacturer's instructions, followed by specific treatments based on experimental designs. To image LDs abundance, HEK293-AAV cell type was induced by 200 µM oleic acid (OA, 01008 from Sigma) conjugated to bovine serum albumin (BSA, A6003 from Sigma) to generate LDs for 24 h prior to 4% PFA fixation. Afterwards, cells were stained by BODIPY 493/503 and Hoechst 33342 for LDs and nuclei labelling, respectively. In other conditions, HEK cells were not treated with OA containing medium. […]
Adipose depots, liver pieces, differentiated iBAs, HepG2, HEK293T and HEK293-AAV cell types were homogenized in RIPA buffer (50 mM Tris-HCl pH 7.4, 150 mM NaCl, 2 mM EDTA, 1.0% Triton X100, 0.5% sodium deoxycholate) with protease inhibitors (Complete, Roche) and phosphatase inhibitors (Halt phosphatase inhibitor cocktail, ThermoFisher). […] The concentration of WCE was determined by DC Protein Assay (Bio-Rad). […]
In general terms: A western blot detects proteins with antibodies after separation by electrophoresis.

A short description of assay [1]: Indirect calorimetry in HFD-fed mice. The class given is in vivo. Particulars: HFD mixed with UCB9608 (5 mg/kg) for 3 weeks, vs DMSO. Here is the method:
8-10 weeks old C57BL/6N male mice were fed on HFD mixing with DMSO or UCB9608 (5 mg/kg) for 3 weeks before indirect calorimetry measurements were performed with Phenomaster (TSE systems) according to the manufacturer's instructions. Animals were single caged and adapted to the metabolic cage for 48h prior to metabolic recording. The energy expenditure between both groups was analyzed via ANCOVA method and RER was analyzed via two-way ANOVA method.

SMILES strings stand for the structures.

With `COc1ccc(NC(=O)N2CCN(c3nc(N)nc4c3cnn4C)[C@@H](C)C2)c(C)c1` [UCB9608], in the assay with ATGL, the “ATGL response to glucose deprivation” value is on record as “loss of ATGL regulation”. The energy expenditure result in assay [1] was “higher”.
